In ChEMBL document CHEMBL1201862, “PubChem BioAssay data set” (2004):
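All cell lines were grown in 96-well plates and treated with compound for 48 hours. GI50: concentration for 50% inhibition of growth.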 The source made the active and inactive calls. Rule as the data show it: active = GI50 up to about 1.1 µM and inactive = higher.

What was measured:
Experiment in all cases: inhibition of tumour cell growth, NCI panel, 48 h
SK-OV-3 = tested on: SK-OV-3
PC-3 = tested on: PC-3
COLO 205 = tested on: COLO 205
K562 = tested on: K562
MDA-N = tested on: MDA-N
BT-549 = tested on: BT-549
OVCAR-8 = tested on: OVCAR-8
MDA-MB-231 = tested on: MDA-MB-231
KM12 = tested on: KM12
MOLT-4 = tested on: MOLT-4
SF-268 = tested on: SF-268
NCI/ADR-RES = tested on: NCI/ADR-RES
Malme-3M = tested on: Malme-3M
LOX IMVI = tested on: LOX IMVI
ACHN = tested on: ACHN
HT-29 = tested on: HT-29
SK-MEL-5 = tested on: SK-MEL-5
U-251 = tested on: U-251
HCC 2998 = tested on: HCC 2998
RPMI-8226 = tested on: RPMI-8226
SK-MEL-2 = tested on: SK-MEL-2
MCF7 = tested on: MCF7
HOP-62 = tested on: HOP-62
SW-620 = tested on: SW-620
SNB-75 = tested on: SNB-75
SK-MEL-28 = tested on: SK-MEL-28
SR = tested on: SR
HOP-92 = tested on: HOP-92
IGROV-1 = tested on: IGROV-1
TK-10 = tested on: TK-10
MDA-MB-435 = tested on: MDA-MB-435
SF-539 = tested on: SF-539
HCT-15 = tested on: HCT-15
SN12C = tested on: SN12C
UACC-62 = tested on: UACC-62
OVCAR-4 = tested on: OVCAR-4
NCI-H460 = tested on: NCI-H460
M14 = tested on: M14
UACC-257 = tested on: UACC-257
OVCAR-5 = tested on: OVCAR-5
RXF 393 = tested on: RXF 393
DU-145 = tested on: DU-145
SF-295 = tested on: SF-295
UO-31 = tested on: UO-31
786-0 = tested on: 786-0
Hs-578T = tested on: Hs-578T
EKVX = tested on: EKVX
A549 = tested on: A549
NCI-H23 = tested on: NCI-H23
NCI-H522 = tested on: NCI-H522
CCRF-CEM = tested on: CCRF-CEM
SNB-19 = tested on: SNB-19
T47D = tested on: T47D
NCI-H226 = tested on: NCI-H226
OVCAR-3 = tested on: OVCAR-3
HL-60 = tested on: HL-60
CAKI-1 = tested on: CAKI-1
HCT-116 = tested on: HCT-116

Measured: GI50

CC(=O)OCc1cncn1S(=O)(=O)c1ccc(C)cc1
inactive: SK-OV-3 > 100 µM | PC-3 > 100 µM | COLO 205 53.1 µM | K562 5.37 µM | MDA-N 9.46 µM | BT-549 > 83.4 µM | OVCAR-8 > 91.4 µM | MDA-MB-231 > 100 µM | KM12 31.7 µM | MOLT-4 32 µM | SF-268 > 100 µM | NCI/ADR-RES > 55.5 µM | Malme-3M > 100 µM | LOX IMVI 30.8 µM | ACHN > 100 µM | HT-29 33.7 µM | SK-MEL-5 24.2 µM | U-251 > 87.7 µM | HCC 2998 > 62.4 µM | RPMI-8226 35 µM | SK-MEL-2 > 100 µM | MCF7 > 25.4 µM | HOP-62 > 100 µM | SW-620 36.4 µM | SNB-75 > 100 µM | SK-MEL-28 > 100 µM | SR 11.4 µM | HOP-92 > 100 µM | IGROV-1 > 74 µM | TK-10 > 100 µM | MDA-MB-435 10.4 µM | SF-539 86.9 µM | SN12C > 91.2 µM | UACC-62 > 91 µM | OVCAR-4 > 76.7 µM | NCI-H460 29.9 µM | M14 42.2 µM | UACC-257 > 100 µM | OVCAR-5 > 100 µM | RXF 393 > 100 µM | DU-145 > 100 µM | SF-295 > 100 µM | UO-31 > 100 µM | 786-0 > 100 µM | Hs-578T > 78.5 µM | EKVX > 100 µM | A549 > 100 µM | NCI-H23 > 100 µM | NCI-H522 71.9 µM | CCRF-CEM 30.4 µM | SNB-19 > 100 µM | T47D 79.4 µM | NCI-H226 > 100 µM | OVCAR-3 43.5 µM | HL-60 10.8 µM | CAKI-1 > 100 µM | HCT-116 25.6 µM
20.3 µM: HCT-15

CC(=O)c1c(-c2ccco2)c(C#N)c(=S)n(C2OC(CO)C(O)C(O)C2O)c1-c1ccccc1 (stereo not drawn)
73.3 µM: HCT-15
inactive: SK-OV-3 > 100 µM | PC-3 64.4 µM | COLO 205 > 100 µM | K562 58.9 µM | MDA-N > 10 µM | BT-549 > 100 µM | OVCAR-8 81.8 µM | MDA-MB-231 > 100 µM | KM12 64.3 µM | MOLT-4 31.6 µM | SF-268 61.2 µM | NCI/ADR-RES 55.1 µM | Malme-3M 63.2 µM | LOX IMVI 36.2 µM | ACHN > 100 µM | HT-29 > 100 µM | SK-MEL-5 35.7 µM | U-251 28.4 µM | RPMI-8226 > 100 µM | MCF7 90.2 µM | HOP-62 47.6 µM | SW-620 76 µM | SNB-75 69.7 µM | SK-MEL-28 38.9 µM | SR 68.7 µM | IGROV-1 > 100 µM | TK-10 > 100 µM | MDA-MB-435 29.2 µM | SF-539 45.2 µM | SN12C 54.5 µM | UACC-62 32 µM | OVCAR-4 73.3 µM | NCI-H460 > 100 µM | M14 40.5 µM | UACC-257 > 100 µM | OVCAR-5 > 100 µM | RXF 393 37 µM | DU-145 87.3 µM | SF-295 52.7 µM | UO-31 51.2 µM | Hs-578T 61.8 µM | EKVX 43.1 µM | A549 > 100 µM | NCI-H23 31.8 µM | CCRF-CEM 43.3 µM | SNB-19 22.4 µM | T47D 29.4 µM | OVCAR-3 > 100 µM | HL-60 41.2 µM | CAKI-1 > 100 µM | HCT-116 66.2 µM

O=C1NC(=O)[C@H]2C3C=CC([C@@H]12)[C@@H]1C(=O)NC(=O)[C@H]31
inactive: PC-3 > 100 µM | COLO 205 > 100 µM | K562 > 100 µM | MDA-N > 100 µM | BT-549 > 100 µM | OVCAR-8 > 100 µM | MDA-MB-231 > 100 µM | MOLT-4 > 100 µM | SF-268 > 100 µM | NCI/ADR-RES > 100 µM | Malme-3M > 100 µM | LOX IMVI > 100 µM | ACHN > 100 µM | SK-MEL-5 > 100 µM | U-251 > 100 µM | HCC 2998 > 100 µM | RPMI-8226 > 100 µM | SK-MEL-2 > 100 µM | MCF7 97.1 µM | HOP-62 > 100 µM | SW-620 > 100 µM | SK-MEL-28 > 100 µM | SR > 100 µM | HOP-92 > 100 µM | IGROV-1 > 100 µM | TK-10 > 100 µM | MDA-MB-435 > 100 µM | SF-539 > 100 µM | SN12C > 100 µM | UACC-62 > 100 µM | NCI-H460 > 100 µM | M14 > 100 µM | UACC-257 > 100 µM | OVCAR-5 > 100 µM | RXF 393 > 100 µM | DU-145 > 100 µM | SF-295 > 100 µM | UO-31 > 100 µM | 786-0 > 100 µM | Hs-578T > 100 µM | EKVX > 100 µM | A549 > 100 µM | NCI-H23 > 100 µM | NCI-H522 > 100 µM | CCRF-CEM > 100 µM | SNB-19 > 100 µM | T47D > 100 µM | NCI-H226 > 100 µM | OVCAR-3 > 100 µM | HL-60 > 100 µM | CAKI-1 > 100 µM | HCT-116 > 100 µM
> 100 µM: HCT-15
